Calls of active or inactive are those of the source. The rule behind the calls is not given here.
How the values were obtained:
B16-F10 [1] = test: Inhibition of alpha-MSH-mediated melanin biosynthesis in mouse B16F10 cells at 25 uM after 24 hrs; type: functional, cell-based
[2] = target: T1, Tyrosinase (Agaricus bisporus) (UniProt O42713); test: Competitive inhibition of mushroom tyrosinase using L-tyrosine as substrate assessed as dopachrome production after 30 mins by Lineweaver-Burk plot analysis
T1 sequence (whole entry): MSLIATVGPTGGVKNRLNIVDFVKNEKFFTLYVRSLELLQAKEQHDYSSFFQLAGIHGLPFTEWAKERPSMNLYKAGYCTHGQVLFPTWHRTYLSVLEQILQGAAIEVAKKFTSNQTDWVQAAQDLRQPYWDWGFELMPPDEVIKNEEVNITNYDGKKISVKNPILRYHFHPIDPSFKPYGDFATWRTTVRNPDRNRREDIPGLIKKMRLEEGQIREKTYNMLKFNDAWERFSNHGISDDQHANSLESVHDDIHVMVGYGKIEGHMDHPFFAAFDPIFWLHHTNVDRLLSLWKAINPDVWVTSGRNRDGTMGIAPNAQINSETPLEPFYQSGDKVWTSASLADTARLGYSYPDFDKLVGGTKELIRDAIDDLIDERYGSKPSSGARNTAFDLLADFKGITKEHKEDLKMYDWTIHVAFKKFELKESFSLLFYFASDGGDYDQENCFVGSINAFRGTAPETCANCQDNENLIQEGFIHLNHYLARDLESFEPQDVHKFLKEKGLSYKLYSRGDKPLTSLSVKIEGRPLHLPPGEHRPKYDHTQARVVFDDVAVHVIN

[3] = Cytotoxicity against mouse B16F10 cells assessed as cell viability at 5 uM after 24 hrs by MTT assay relative to control; type: cell-based, B16-F10; conditions: read-out: Activity
[4] = Cytotoxicity against mouse B16F10 cells assessed as cell viability at 25 uM after 24 hrs by MTT assay relative to control; type: cell-based, B16-F10; conditions: read-out: Activity
B16-F10 [5] = test: Inhibition of alpha-MSH-mediated melanin biosynthesis in mouse B16F10 cells after 24 hrs; type: functional, cell-based
[6] = Cytotoxicity against mouse B16F10 cells assessed as cell viability at 10 uM after 24 hrs by MTT assay relative to control; type: cell-based, B16-F10; conditions: read-out: Activity
[7] = target: T2, Tyrosinase (Mus musculus) (UniProt P11344); test: Inhibition of tyrosinase in alpha-MSH-stimulated mouse B16F10 cells assessed as L-DOPA oxidation after 24 hrs; type: cell-based; conditions: B16-F10
T2 sequence (whole entry): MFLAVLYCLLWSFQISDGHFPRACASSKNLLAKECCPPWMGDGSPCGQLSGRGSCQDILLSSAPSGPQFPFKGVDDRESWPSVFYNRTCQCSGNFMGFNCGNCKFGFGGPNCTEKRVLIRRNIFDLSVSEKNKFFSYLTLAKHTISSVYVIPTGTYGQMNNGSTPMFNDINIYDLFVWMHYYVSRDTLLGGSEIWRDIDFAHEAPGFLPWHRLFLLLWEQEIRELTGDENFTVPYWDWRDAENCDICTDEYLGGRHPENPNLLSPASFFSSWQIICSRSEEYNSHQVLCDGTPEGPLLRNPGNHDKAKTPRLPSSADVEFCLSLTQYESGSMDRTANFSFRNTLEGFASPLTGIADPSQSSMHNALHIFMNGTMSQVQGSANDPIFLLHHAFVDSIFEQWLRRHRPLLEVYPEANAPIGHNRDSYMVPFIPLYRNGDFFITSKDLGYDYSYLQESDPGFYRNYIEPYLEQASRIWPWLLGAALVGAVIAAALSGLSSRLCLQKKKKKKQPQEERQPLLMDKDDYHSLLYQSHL

Compound | inhibition (B16-F10 [1]) | inhibition [2] | viability at 24 h, 5 µM [3] [%] | viability at 24 h, 25 µM [4] [%] | inhibition (B16-F10 [5]) | viability at 24 h, 10 µM [6] [%] | inhibition [7]
O=c1cc(CO)occ1O | Active | – | – | – | – | – | –
N#C/C(=C\c1ccc(O)c(O)c1)C(N)=O | – | Dose-dependent effect | 99.6 | 96.9 | Dose-dependent effect | 98.6 | Dose-dependent effect

Source: ChEMBL document CHEMBL3734703, “(E)-2-Cyano-3-(substituted phenyl)acrylamide analogs as potent inhibitors of tyrosinase: A linear β-phenyl-α,β-unsaturated carbonyl scaffold” (Bioorg Med Chem, 2015)
